Results taken from patent publication US20230023332A1, “OLEAN-PHENYLACRYLAMIDE DERIVATIVE, METHOD FOR PREPARING SAME, AND USE THEREOF” (Lunan Pharmaceutical Group Corporation, priority 2019, published 2023).

Each molecule was assayed on rat embryonic cardiomyocytes H9C2 (assay: MTT proliferation inhibition / toxicity, H9C2). Conditions: Rattus norvegicus; H9C2 cardiomyocytes, MTT, 48 h; read-out: Inhibitory activity (IC50) against proliferation, H9C2.
Format: cell-based
Procedure: (§1) The anti-tumor activity of the compounds of the present invention was determined by the method of methyl thiazolyl tetrazolium (MTT), Bardoxolone Methyl (CDDO-Me) being selected as a positive control medicament.
(§2) Instruments: ultra-clean bench (SW-CJ-1FD, AIRTECH, Suzhou Antai Airtech Co. Ltd.), constant-temperature CO2 incubator (3111, Thermo, USA), inverted biomicroscope (IX71, OLYMPUS, Japan), ELISA microplate reader (Model 680, BIO-RAD, USA), platform shaker (Kylin-bell lab Instruments), autoclave (YXO.SG4I.280, Shanghai Huaxian), and centrifuge (SIGMA).
(§3) Reagents: DMEM (GIBCO), fetal bovine serum (GIBCO), trypsin (SIGMA), and DMSO (SIGMA).
(§4) Cell strains: human non-small cell lung cancer cell strain A549, human liver cancer cell strain HepG2, human breast cancer cell strain MCF-7, human renal tubular epithelial cells HK-2, rat embryonic cardiomyocytes H9C2 (all provided by Jiangsu KeyGEN BioTECH Co., Ltd.).
(§5) Methods: the cryopreserved cell strains were resuscitated and cultured in a CO2 incubator at a constant temperature of 37° C. with liquid being changed once daily. Plating was carried out when the cell strains were in a good state in the exponential phase. 1 mL of 0.25% trypsin solution was added for digestion for 1-2 min. The cell status was observed under the microscope, and when the adherent cells became round and shrunk, the digestion solution was aspirated and 1-2 mL of a DMEM medium containing 10% fetal bovine serum was added to obtain a cell suspension, on which a cell count was performed. The amount of required cell suspension was calculated on the basis of 5×10^4 cells per well and the total number of wells. The cell suspension was inoculated on a 96-well plate at 100 μL/well, the surroundings being blocked with PBS, followed by incubation in a CO2 incubator at a constant temperature of 37° C. for 24 h.
(§6) The test medicament, positive control medicament CDDO-Me, and blank control group DMSO were prepared in DMEM media to a final concentration of 5 μM/well, each medicament being placed in 3 replicate wells, followed by incubation for 48 h. The MTT reagent was added to the 96-well plate at 10 μL/well to further incubate for 4 h. The medium in the plate was aspirated and 100 μL of DMSO was added to each well, followed by shaking on the platform shaker for 10 min such that the crystals were dissolved. The absorbance of each well was examined by the ELISA microplate reader at a wavelength of 570 nm, and the cell inhibition rate was calculated according to the formula hereinafter. The mean value of three preliminary screening results was taken as the final inhibition rate thereof.
(§7) Cell inhibition rate (%)=[(OD value of blank control−OD value of dosing cohort)/OD value of blank control group]×100%

Structure (SMILES)	IC50
Cc1ccc(/C(C#N)=C/C(=O)N[C@]23CCC(C)(C)C[C@H]2[C@H]2C(=O)C=C4[C@@]5(C)C=C(C#N)C(=O)C(C)(C)[C@@H]5CC[C@@]4(C)[C@]2(C)CC3)cc1 [Compound I-14]	14 ± 1 nM
CC1(C)CC[C@]2(NC(=O)/C=C/c3ccc(Cl)cc3)CC[C@]3(C)[C@H](C(=O)C=C4[C@@]5(C)C=C(C#N)C(=O)C(C)(C)[C@@H]5CC[C@]43C)[C@@H]2C1 [Compound I-6]	373 ± 2 nM
CC1(C)CC[C@]2(NC(=O)/C=C/c3ccc(F)cc3)CC[C@]3(C)[C@H](C(=O)C=C4[C@@]5(C)C=C(C#N)C(=O)C(C)(C)[C@@H]5CC[C@]43C)[C@@H]2C1 [Compound I-5]	316 ± 1 nM
CC1(C)CC[C@]2(NC(=O)/C(C#N)=C/c3ccc(F)cc3)CC[C@]3(C)[C@H](C(=O)C=C4[C@@]5(C)C=C(C#N)C(=O)C(C)(C)[C@@H]5CC[C@]43C)[C@@H]2C1 [Compound I-11]	52 ± 1 nM

Each molecule was assayed on human renal tubular epithelial cells HK-2 (assay: MTT proliferation inhibition / toxicity, HK-2). Conditions: Homo sapiens; HK-2 cells, MTT, 48 h; read-out: Inhibitory activity (IC50) against proliferation, HK-2.
Format: cell-based
Procedure: as §1, §2, §3, §4, §5, §6, §7

Structure (SMILES)	IC50
Cc1ccc(/C(C#N)=C/C(=O)N[C@]23CCC(C)(C)C[C@H]2[C@H]2C(=O)C=C4[C@@]5(C)C=C(C#N)C(=O)C(C)(C)[C@@H]5CC[C@@]4(C)[C@]2(C)CC3)cc1 [Compound I-14]	939 ± 62 nM
CC1(C)CC[C@]2(NC(=O)/C=C/c3ccc(Cl)cc3)CC[C@]3(C)[C@H](C(=O)C=C4[C@@]5(C)C=C(C#N)C(=O)C(C)(C)[C@@H]5CC[C@]43C)[C@@H]2C1 [Compound I-6]	727 ± 430 nM
CC1(C)CC[C@]2(NC(=O)/C=C/c3ccc(F)cc3)CC[C@]3(C)[C@H](C(=O)C=C4[C@@]5(C)C=C(C#N)C(=O)C(C)(C)[C@@H]5CC[C@]43C)[C@@H]2C1 [Compound I-5]	2825 ± 4 nM
CC1(C)CC[C@]2(NC(=O)/C(C#N)=C/c3ccc(F)cc3)CC[C@]3(C)[C@H](C(=O)C=C4[C@@]5(C)C=C(C#N)C(=O)C(C)(C)[C@@H]5CC[C@]43C)[C@@H]2C1 [Compound I-11]	308 ± 71 nM

Same assay, conditions: statement in words

Structure (SMILES)	toxicity to human renal tubular epithelial cells HK-2
Cc1ccc(/C(C#N)=C/C(=O)N[C@]23CCC(C)(C)C[C@H]2[C@H]2C(=O)C=C4[C@@]5(C)C=C(C#N)C(=O)C(C)(C)[C@@H]5CC[C@@]4(C)[C@]2(C)CC3)cc1 [Compound I-14]	lower toxicity
CC1(C)CC[C@]2(NC(=O)/C=C/c3ccc(Cl)cc3)CC[C@]3(C)[C@H](C(=O)C=C4[C@@]5(C)C=C(C#N)C(=O)C(C)(C)[C@@H]5CC[C@]43C)[C@@H]2C1 [Compound I-6]	lower toxicity
CC1(C)CC[C@]2(NC(=O)/C=C/c3ccc(F)cc3)CC[C@]3(C)[C@H](C(=O)C=C4[C@@]5(C)C=C(C#N)C(=O)C(C)(C)[C@@H]5CC[C@]43C)[C@@H]2C1 [Compound I-5]	lower toxicity

The molecules below were run on human breast cancer cell strain MCF-7 (assay: MTT proliferation inhibition, MCF-7). Conditions: Homo sapiens, MCF7, MCF-7 cells, 48 h, read-out: Inhibitory activity (IC50) against proliferation, MCF-7.
Format: cell-based
Procedure: as §1, §2, §3, §4, §5, §6, §7

Structure (SMILES)	IC50
Cc1ccc(/C(C#N)=C/C(=O)N[C@]23CCC(C)(C)C[C@H]2[C@H]2C(=O)C=C4[C@@]5(C)C=C(C#N)C(=O)C(C)(C)[C@@H]5CC[C@@]4(C)[C@]2(C)CC3)cc1 [Compound I-14]	432 ± 188 nM
CC1(C)CC[C@]2(NC(=O)/C=C/c3ccc(Cl)cc3)CC[C@]3(C)[C@H](C(=O)C=C4[C@@]5(C)C=C(C#N)C(=O)C(C)(C)[C@@H]5CC[C@]43C)[C@@H]2C1 [Compound I-6]	738 ± 9 nM
CC1(C)CC[C@]2(NC(=O)/C=C/c3ccc(F)cc3)CC[C@]3(C)[C@H](C(=O)C=C4[C@@]5(C)C=C(C#N)C(=O)C(C)(C)[C@@H]5CC[C@]43C)[C@@H]2C1 [Compound I-5]	1310 ± 127 nM
CC1(C)CC[C@]2(NC(=O)/C(C#N)=C/c3ccc(F)cc3)CC[C@]3(C)[C@H](C(=O)C=C4[C@@]5(C)C=C(C#N)C(=O)C(C)(C)[C@@H]5CC[C@]43C)[C@@H]2C1 [Compound I-11]	424 ± 129 nM

The molecules below were run on human non-small cell lung cancer cell strain A549 (assay: MTT proliferation inhibition, A549). Conditions: Homo sapiens, A549 cells, 48 h, read-out: Inhibitory activity (IC50) against proliferation, A549.
Format: cell-based
Procedure: as §1, §2, §3, §4, §5, §6, §7

Structure (SMILES)	IC50
Cc1ccc(/C(C#N)=C/C(=O)N[C@]23CCC(C)(C)C[C@H]2[C@H]2C(=O)C=C4[C@@]5(C)C=C(C#N)C(=O)C(C)(C)[C@@H]5CC[C@@]4(C)[C@]2(C)CC3)cc1 [Compound I-14]	337 ± 15 nM
CC1(C)CC[C@]2(NC(=O)/C=C/c3ccc(Cl)cc3)CC[C@]3(C)[C@H](C(=O)C=C4[C@@]5(C)C=C(C#N)C(=O)C(C)(C)[C@@H]5CC[C@]43C)[C@@H]2C1 [Compound I-6]	588 ± 36 nM
CC1(C)CC[C@]2(NC(=O)/C=C/c3ccc(F)cc3)CC[C@]3(C)[C@H](C(=O)C=C4[C@@]5(C)C=C(C#N)C(=O)C(C)(C)[C@@H]5CC[C@]43C)[C@@H]2C1 [Compound I-5]	788 ± 345 nM
CC1(C)CC[C@]2(NC(=O)/C(C#N)=C/c3ccc(F)cc3)CC[C@]3(C)[C@H](C(=O)C=C4[C@@]5(C)C=C(C#N)C(=O)C(C)(C)[C@@H]5CC[C@]43C)[C@@H]2C1 [Compound I-11]	609 ± 67 nM

Each molecule was assayed on human liver cancer cell strain HepG2 (assay: MTT proliferation inhibition, HepG2). Conditions: Homo sapiens, HepG2 cells, 48 h, read-out: Inhibitory activity (IC50) against proliferation, HepG2.
Format: cell-based
Procedure: as §1, §2, §3, §4, §5
The MTT reagent was added to the 96-well plate at 10 μL/well to further incubate for 4 h. The medium in the plate was aspirated and 100 μL of DMSO was added to each well, followed by shaking on the platform shaker for 10 min such that the crystals were dissolved. […] The mean value of three preliminary screening results was taken as the final inhibition rate thereof.
as §7

Structure (SMILES)	IC50
Cc1ccc(/C(C#N)=C/C(=O)N[C@]23CCC(C)(C)C[C@H]2[C@H]2C(=O)C=C4[C@@]5(C)C=C(C#N)C(=O)C(C)(C)[C@@H]5CC[C@@]4(C)[C@]2(C)CC3)cc1 [Compound I-14]	313 ± 35 nM
CC1(C)CC[C@]2(NC(=O)/C=C/c3ccc(Cl)cc3)CC[C@]3(C)[C@H](C(=O)C=C4[C@@]5(C)C=C(C#N)C(=O)C(C)(C)[C@@H]5CC[C@]43C)[C@@H]2C1 [Compound I-6]	482 ± 2 nM
CC1(C)CC[C@]2(NC(=O)/C=C/c3ccc(F)cc3)CC[C@]3(C)[C@H](C(=O)C=C4[C@@]5(C)C=C(C#N)C(=O)C(C)(C)[C@@H]5CC[C@]43C)[C@@H]2C1 [Compound I-5]	785 ± 96 nM
CC1(C)CC[C@]2(NC(=O)/C(C#N)=C/c3ccc(F)cc3)CC[C@]3(C)[C@H](C(=O)C=C4[C@@]5(C)C=C(C#N)C(=O)C(C)(C)[C@@H]5CC[C@]43C)[C@@H]2C1 [Compound I-11]	337 ± 12 nM
